Values after ≈ are worked out from the molar mass of the structure shown.
Tests used:
C. glabrata = experiment: Yeast susceptibility testing (EUCAST E.DEF 7.3.2 broth microdilution), C. glabrata; format: cell-based; details: Nakaseomyces glabratus, C. glabrata isolates (n=8), 24 hours read, MIC = growth inhibited by ≥50% (Amphotericin ≥90%)
Description: (§1) AST was used to determine a Minimum Inhibitory Concentration (MIC) value for each antifungal agent on each strain of Candida. Three comparator drugs were also tested. This allowed the effectiveness of RO-101 gel to be compared to common antifungal drugs often used to treat VVC. Antifungal agents and their concentrations were as follows: RO-101 gel (1×, 2×, 10×, 20×: 1×=0.005%, 2×=0.01%, 10×=0.05% and 20×=0.1% Gox) (1 to 500 mg/L), SurgihoneyRO (1 to 500 mg/L), RO-101 gel 0% negative control (0% Gox) (1 to 500 mg/L), Fluconazole (0.125 to 64 mg/L), Itraconazole (0.015 to 8 mg/L) and Amphotericin (0.015 to 8 mg/L). The EUCAST E.DEF 7.3.2 (EUCAST, 2022a) method for yeast susceptibility testing was followed where possible.
(§2) Stock solutions of drugs were prepared with RPMI 1640 medium with 2% glucose. This was prepared by dissolving 20.8 g of RPMI 1640 powder (Sigma, Cat. No. R-6504), 69.1 g of morpholinopropanesulfonic acid (MOPS) (Melford, Cat. No. B2003) and 36 g of glucose (Sigma, Cat. No. G7528) in 800 ml of pharmacy water (Appleton Woods). 10M sodium hydroxide (Sigma, S8045) was added to adjust the pH to 7, and then the RPMI was filter sterilised. De Man, Rogosa & Sharpe (MRS) broth was used to grow the Lactobacillus isolates. MRS broth was prepared by dissolving 51 g of MRS powder (Sigma, 69966) in 1 litre of pharmacy water. 1 ml of Tween 80 (Sigma, P8074) was then added. The mixture was then sterilized by autoclaving at 121° C. for 15 minutes.
(§3) All yeast isolates selected were grown from high vaginal swab samples and were of the Candida genus. Species chosen included C. albicans (n=5), C. glabrata (n=8), C. krusei (n=4), C. tropicalis (n=3) and C. parapsilosis (n=4). These isolates were identified to a species level by testing for the presence of a germ tube, biochemical testing, what temperature the isolate grew in, the colour when streaked on chrome agar, and in some cases the isolates DNA was sequenced.
(§4) The isolates were streaked for single colonies on a SAB plate, using a sterile metal loop. They were then incubated at 35° C. for 48 hours prior to susceptibility testing. […]

[1] = system: strains of Candida causing VVC; experiment: Yeast susceptibility testing, all Candida species tested (overall comparisons); format: cell-based; details: versus all of the gel concentrations
Description: as §1
as §2, with “The mixture was then sterilized by autoclaving at 121° C. for 15 minutes.” left out

C. albicans = experiment: Yeast susceptibility testing (EUCAST E.DEF 7.3.2 broth microdilution), C. albicans; format: cell-based; details: Candida albicans; C. albicans isolates (n=5); 24 hours read; MIC = growth inhibited by ≥50% (Amphotericin ≥90%)
Description: as §1
as §2, with “The mixture was then sterilized by autoclaving at 121° C. for 15 minutes.” left out

[2] = at 20° C. and 1 atm; cited from earlier work
C. tropicalis = experiment: Yeast susceptibility testing (EUCAST E.DEF 7.3.2 broth microdilution), C. tropicalis; format: cell-based; details: Candida tropicalis, C. tropicalis isolates (n=3), 24 hours read, MIC = growth inhibited by ≥50%
Description: as §1
as §2, with “The mixture was then sterilized by autoclaving at 121° C. for 15 minutes.” left out

C. krusei = experiment: Yeast susceptibility testing (EUCAST E.DEF 7.3.2 broth microdilution), C. krusei; format: cell-based; details: Pichia kudriavzevii, C. krusei isolates (n=4), 24 hours read, MIC = growth inhibited by ≥50%
Description: as §1, §2, §3, §4

C. parapsilosis = experiment: Yeast susceptibility testing (EUCAST E.DEF 7.3.2 broth microdilution), C. parapsilosis; format: cell-based; details: Lodderomyces parapsilosis, C. parapsilosis isolates (n=4), 24 hours read, MIC = growth inhibited by ≥50%
Description: as §1, §2, §3, §4

## C[C@@H]1[C@H](O)[C@@H](C)/C=C/C=C/C=C/C=C/C=C/C=C/C=C/[C@H](O[C@@H]2O[C@H](C)[C@@H](O)[C@H](N)[C@@H]2O)C[C@@H]2O[C@](O)(C[C@@H](O)C[C@@H](O)[C@H](O)CC[C@@H](O)C[C@@H](O)CC(=O)O[C@H]1C)C[C@H](O)[C@H]2C(=O)O [Amphotericin]
C. glabrata
  MIC50: 0.0625 µg/mL (≈ 0.0676 µM)
  MIC90: 0.125 µg/mL (≈ 0.135 µM)
C. glabrata; read-out: MIC geometric mean
  MIC: 0.081 µg/mL (≈ 0.0877 µM)
[1]
  MIC50, MIC90 and geometric means in comparison with RO-101 Gel: lower MIC50, MIC90 and geometric means than all of the gel concentrations
C. albicans
  MIC50: 0.0625 µg/mL (≈ 0.0676 µM)
  MIC90: 0.0625 µg/mL (≈ 0.0676 µM)

## O=C(CO)[C@@H](O)[C@H](O)[C@H](O)CO [Fructose]
[2]
  solubility: about 375 g/100 g water

## CCC(C)n1ncn(-c2ccc(N3CCN(c4ccc(OCC5COC(Cn6cncn6)(c6ccc(Cl)cc6Cl)O5)cc4)CC3)cc2)c1=O (stereo not drawn) [Itraconazole]
C. tropicalis
  MIC90: 0.0625 µg/mL (≈ 0.0886 µM)
C. tropicalis; read-out: MIC geometric mean
  MIC: 0.031 µg/mL (≈ 0.0439 µM)
C. krusei
  MIC50: 0.125 µg/mL (≈ 0.177 µM)
  MIC90: 0.25 µg/mL (≈ 0.354 µM)
C. krusei; read-out: MIC geometric mean
  MIC: 0.177 µg/mL (≈ 0.251 µM)
C. parapsilosis
  MIC50: 0.015 µg/mL (≈ 0.0213 µM)
  MIC90: 0.125 µg/mL (≈ 0.177 µM)
C. parapsilosis; read-out: MIC geometric mean
  MIC: 0.025 µg/mL (≈ 0.0354 µM)
